According to patent publication US8962842B2, “2-pyridone antimicrobial compositions” (priority 2010, dated 2015):
Read-outs that look alike come from different tables or passages of the source.

How the values were obtained:
[1] = system: Haemophilus influenza (5 strains); assay: MIC range, broader panel of Quotient Bioresearch strains (Table 4); type: cell-based, Haemophilus influenzae; conditions: for MIC50: 16 h, Median of the strain panel
[2] = system: Klebsiella pneumonia (4 strains); assay: as above; type: cell-based; conditions: Klebsiella pneumoniae; for MIC50: read-out: MIC Range Median, Klebsiella pneumonia (4 strains)
[3] = system: Staphylococcus aureus (16 strains); assay: MIC range, broader panel of Quotient Bioresearch strains (Table 3); conditions: for MIC50: read-out: MIC Range Median, Staphylococcus aureus (16 strains)
[4] = system: Pseudomonas aeruginosa (12 strains); assay: MIC range, broader panel of Quotient Bioresearch strains (Table 4); type: cell-based; conditions: for MIC50: read-out: MIC Range Median, Pseudomonas aeruginosa (12 strains)
[5] = system: Group C Streptococcus (4 strains); assay: MIC range, broader panel of Quotient Bioresearch strains (Table 3); conditions: for MIC50: read-out: MIC Range Median, Group C Streptococcus (4 strains)
[6] = system: Escherichia coli (6 strains); assay: MIC range, broader panel of Quotient Bioresearch strains (Table 4); type: cell-based; conditions: for MIC50: read-out: MIC Range Median, Escherichia coli (6 strains)
[7] = system: Burkholderia cepacia (5 strains); assay: as above; type: cell-based; conditions: for MIC50: read-out: MIC Range Median, Burkholderia cepacia (5 strains)
[8] = system: Acinetobacter baumannii (12 strains); assay: as above; type: cell-based; conditions: for MIC50: read-out: MIC Range Median, Acinetobacter baumannii (12 strains)
[9] = system: Enterococcus faecium (3 strains); assay: MIC range, broader panel of Quotient Bioresearch strains (Table 3); conditions: for MIC50: read-out: MIC Range Median, Enterococcus faecium (3 strains)
[10] = system: Streptococcus pyogenes (4 strains); assay: as above; conditions: for MIC50: read-out: MIC Range Median, Streptococcus pyogenes (4 strains)
[11] = system: Enterococcus faecalis (5 strains); assay: as above; conditions: for MIC50: read-out: MIC Range Median, Enterococcus faecalis (5 strains)
[12] = system: Streptococcus pneumonia (5 strains); assay: as above; conditions: Streptococcus pneumoniae; for MIC50: read-out: MIC Range Median, Streptococcus pneumonia (5 strains)
[13] = High of the strain panel, read-out: MIC Range High, Haemophilus influenza (5 strains)
[14] = Low of the strain panel, read-out: MIC Range Low, Haemophilus influenza (5 strains)
[15] = read-out: MIC Range High, Klebsiella pneumonia (4 strains)
[16] = read-out: MIC Range Low, Klebsiella pneumonia (4 strains)
[17] = read-out: MIC Range High, Staphylococcus aureus (16 strains)
[18] = read-out: MIC Range Low, Staphylococcus aureus (16 strains)
[19] = read-out: MIC Range High, Pseudomonas aeruginosa (12 strains)
[20] = read-out: MIC Range Low, Pseudomonas aeruginosa (12 strains)
[21] = read-out: MIC Range High, Group C Streptococcus (4 strains)
[22] = read-out: MIC Range Low, Group C Streptococcus (4 strains)
[23] = read-out: MIC Range High, Escherichia coli (6 strains)
[24] = read-out: MIC Range Low, Escherichia coli (6 strains)
[25] = read-out: MIC Range High, Burkholderia cepacia (5 strains)
[26] = read-out: MIC Range Low, Burkholderia cepacia (5 strains)
[27] = read-out: MIC Range High, Acinetobacter baumannii (12 strains)
[28] = read-out: MIC Range Low, Acinetobacter baumannii (12 strains)
[29] = read-out: MIC Range High, Enterococcus faecium (3 strains)
[30] = read-out: MIC Range Low, Enterococcus faecium (3 strains)
[31] = read-out: MIC Range High, Streptococcus pyogenes (4 strains)
[32] = read-out: MIC Range Low, Streptococcus pyogenes (4 strains)
[33] = read-out: MIC Range High, Enterococcus faecalis (5 strains)
[34] = read-out: MIC Range Low, Enterococcus faecalis (5 strains)
[35] = read-out: MIC Range High, Streptococcus pneumonia (5 strains)
[36] = read-out: MIC Range Low, Streptococcus pneumonia (5 strains)

Row | Structure (SMILES) | MIC50 [1] [µg/mL] | MIC [1, 13] [µg/mL] | MIC [1, 14] [µg/mL] | MIC [2, 15] [µg/mL] | MIC [2, 16] [µg/mL] | MIC50 [2] [µg/mL] | MIC [3, 17] [µg/mL] | MIC [3, 18] [µg/mL] | MIC50 [3] [µg/mL] | MIC [4, 19] [µg/mL] | MIC50 [4] [µg/mL] | MIC [5, 21] [µg/mL] | MIC [5, 22] [µg/mL] | MIC50 [5] [µg/mL] | MIC [6, 23] [µg/mL] | MIC [6, 24] [µg/mL] | MIC50 [6] [µg/mL] | MIC [7, 25] [µg/mL] | MIC [7, 26] [µg/mL] | MIC50 [7] [µg/mL] | further results
1 | Cc1c(-c2ccc(N)c(F)c2)c(F)cn2c(=O)c(C(=O)[O-])cc(C3CC3)c12.[K+] [Example 1 K salt, potassium 8-(4-amino-3-fluoro-phenyl)-1-cyclopropyl-7-fluoro-9-methyl-4-oxo-4H-quinolizine-3-carboxylate] | ≤ 0.015 | 0.03 | ≤ 0.015 | > 32 | 0.5 | 16 | 0.5 | ≤ 0.015 | 0.5 | 32 | 16 | 0.5 | 0.12 | 0.25 | > 32 | 0.06 | > 32 | 2 | 0.5 | 1 | MIC [4, 20]: 2 µg/mL; MIC [8, 27]: > 32 µg/mL; MIC [8, 28]: 0.25 µg/mL; MIC50 [8]: 20 µg/mL; MIC [9, 29]: 8 µg/mL; MIC [9, 30]: 1 µg/mL; MIC50 [9]: 2 µg/mL; MIC [10, 31]: 1 µg/mL; MIC [10, 32]: 0.5 µg/mL; MIC50 [10]: 0.5 µg/mL; MIC [11, 33]: 4 µg/mL; MIC [11, 34]: 0.12 µg/mL; MIC50 [11]: 0.12 µg/mL; MIC [12, 35]: 0.5 µg/mL; MIC [12, 36]: 0.5 µg/mL; MIC50 [12]: 0.5 µg/mL
2 | Cc1c(-c2ccc(N)cc2)c(F)cn2c(=O)c(C(=O)[O-])cc(C3CC3)c12.[K+] [Example 5 K salt, potassium 8-(4-amino-phenyl)-1-cyclopropyl-7-fluoro-9-methyl-4-oxo-4H-quinolizine-3-carboxylate] | ≤ 0.015 | ≤ 0.015 | ≤ 0.015 | 16 | 0.12 | 10 | 0.25 | ≤ 0.015 | 0.12 | 16 | 4 | 0.12 | 0.06 | 0.06 | 16 | 0.03 | 8 | 0.5 | 0.12 | 0.25 | MIC [4, 20]: 1 µg/mL; MIC [8, 27]: 16 µg/mL; MIC [8, 28]: 0.06 µg/mL; MIC50 [8]: 6 µg/mL; MIC [9, 29]: 4 µg/mL; MIC [9, 30]: 0.25 µg/mL; MIC50 [9]: 1 µg/mL; MIC [10, 31]: 0.5 µg/mL; MIC [10, 32]: 0.12 µg/mL; MIC50 [10]: 0.12 µg/mL; MIC [11, 33]: 1 µg/mL; MIC [11, 34]: 0.03 µg/mL; MIC50 [11]: 0.06 µg/mL; MIC [12, 35]: 0.25 µg/mL; MIC [12, 36]: 0.12 µg/mL; MIC50 [12]: 0.12 µg/mL
3 | Cc1c(-c2ccc(C(N)=O)cc2)c(F)cn2c(=O)c(C(=O)[O-])cc(C3CC3)c12.[K+] [Example 6 K salt, potassium 8-(4-carbamoyl-phenyl)-1-cyclopropyl-7-fluoro-9-methyl-4-oxo-4H-quinolizine-3-carboxylate] | 0.03 | 0.06 | 0.03 | > 32 | 1 | > 32 | 1 | 0.03 | 0.5 | > 32 | > 32 | 0.12 | 0.06 | 0.12 | > 32 | 0.25 | > 32 | 4 | 1 | 2 | MIC [4, 20]: 8 µg/mL; MIC [8, 27]: > 32 µg/mL; MIC [8, 28]: 1 µg/mL; MIC50 [8]: > 32 µg/mL; MIC [9, 29]: 8 µg/mL; MIC [9, 30]: 1 µg/mL; MIC50 [9]: 2 µg/mL; MIC [10, 31]: 0.25 µg/mL; MIC [10, 32]: 0.12 µg/mL; MIC50 [10]: 0.12 µg/mL; MIC [11, 33]: 4 µg/mL; MIC [11, 34]: 0.12 µg/mL; MIC50 [11]: 0.25 µg/mL; MIC [12, 35]: 0.25 µg/mL; MIC [12, 36]: 0.25 µg/mL; MIC50 [12]: 0.25 µg/mL
4 | Cc1c(-c2ccncc2)ccn2c(=O)c(C(=O)[O-])cc(C3CC3)c12.[K+] [Example 16 K salt, potassium 1-cyclopropyl-9-methyl-4-oxo-8-(pyridin-4-yl)-4H-quinolizine-3-carboxylate] | ≤ 0.015 | ≤ 0.015 | ≤ 0.015 | > 32 | 0.12 | 16 | 1 | ≤ 0.015 | 1 | > 32 | 16 | 0.5 | 0.25 | 0.25 | > 32 | 0.03 | > 32 | 0.5 | 0.25 | 0.25 | MIC [4, 20]: 2 µg/mL; MIC [8, 27]: > 32 µg/mL; MIC [8, 28]: 0.12 µg/mL; MIC50 [8]: 16 µg/mL; MIC [9, 29]: 16 µg/mL; MIC [9, 30]: 1 µg/mL; MIC50 [9]: 8 µg/mL; MIC [10, 31]: 1 µg/mL; MIC [10, 32]: 0.25 µg/mL; MIC50 [10]: 0.375 µg/mL; MIC [11, 33]: 8 µg/mL; MIC [11, 34]: 0.25 µg/mL; MIC50 [11]: 0.25 µg/mL; MIC [12, 35]: 1 µg/mL; MIC [12, 36]: 0.5 µg/mL; MIC50 [12]: 0.5 µg/mL
5 | Cc1c(-c2ccc(CN)cc2)ccn2c(=O)c(C(=O)[O-])cc(C3CC3)c12.[K+] [Example 31 K salt, potassium 8-(4-(amino-methyl)-phenyl)-1-cyclopropyl-9-methyl-4-oxo-4H-quinolizine-3-carboxylate] | ≤ 0.015 | ≤ 0.015 | ≤ 0.015 | 32 | 0.03 | 9 | 2 | ≤ 0.015 | 0.5 | > 32 | 8 | 0.12 | 0.06 | 0.09 | 32 | ≤ 0.015 | 8 | 1 | 0.12 | 0.5 | MIC [8, 27]: > 32 µg/mL; MIC [8, 28]: 0.03 µg/mL; MIC50 [8]: 8 µg/mL; MIC [9, 29]: 8 µg/mL; MIC [9, 30]: 0.5 µg/mL; MIC50 [9]: 4 µg/mL; MIC [10, 31]: 0.25 µg/mL; MIC [10, 32]: 0.06 µg/mL; MIC50 [10]: 0.09 µg/mL; MIC [11, 33]: 4 µg/mL; MIC [11, 34]: 0.06 µg/mL; MIC50 [11]: 0.12 µg/mL; MIC [12, 35]: 0.25 µg/mL; MIC [12, 36]: 0.06 µg/mL; MIC50 [12]: 0.12 µg/mL
